Laboratory results as given in PMC6747051, “Screening of Antiviral Components of Ma Huang Tang and Investigation on the Ephedra Alkaloids Efficacy on Influenza Virus Type A” (Frontiers in Pharmacology, 2019).
Converted amounts (≈) assume the structure as drawn. “Also recorded” adds a separate entry of the source.

Tests used:
influenza A virus [1] = experiment: Antiviral activity assay in vitro with four ways of drug delivery (MTT, MDCK cells); assay type: cell-based, influenza virus A/PR8/34 (H1N1); settings: for EC50: Influenza A virus, MDCK; for antiviral effective rate (ER): final concentration 3.91 μg/ml
influenza A virus [2] = experiment: Viral load assay using real-time RT-PCR (M1 gene) and CPE in infected MDCK cells; assay type: cell-based, influenza virus A/PR8/34 (H1N1); settings: 24 and 48 h after administration; for viral load in MDCK cells vs control infected group: each dose group, P < 0.01 or P < 0.05
[3] = system: IL-6, IFN-β and TNF-α levels; assay type: cell-based, canine
[4] = system: TLRs signaling pathway mRNA; assay type: cell-based, canine
[5] = system: influenza A virus (A PR/8/34); experiment: HE assay of lung tissue of infected mice; assay type: in vivo, ICR mice; settings: days 3 and 7 post-infection, 40, 20, 10 mg/kg
Procedure: (§1) A total of 108 ICR mice were randomly divided into the control uninfected group, the control infected group, oseltamivir group, LEP-treated groups and DPEP-treated groups; 12 mice were designed in each group. Except for the mice in the control uninfected group, others were anaesthetized with ethyl ether and intranasally infected with 10LD50 influenza A virus (A PR/8/34) in a volume of 50 μl PBS to induce viral pneumonia. […] Meanwhile, the control uninfected group and the control infected group were only given saline with the same volume. […] The adult daily dose was converted into the high dose of mice, which was about 40 mg/kg. Based on the high dose of the drug, the medium and low doses were set.
In the 3rd and 7th days after infection, the right lung lobes from each mouse were washed with normal saline and immediately soaked in 10% normal buffered formalin for one week. Then the samples were dehydrated with ethanol and embedded in paraffin. The 4-μm-thick lung sections were stained with HE and the pathological changes of lung tissue were observed under the light microscope.

[6] = system: influenza A virus (A PR/8/34); experiment: RT-PCR analysis of viral load in murine lung tissue; assay type: in vivo, ICR mice
Procedure: as §1
In the 3rd and 7th days after infection, the left lung lobes from each mouse were washed with normal saline and stored at -80°C for RT-PCR and western blot analysis use. For RT-PCR analysis, the left lung was homogenized in precooled normal saline and centrifuged at 4000 rpm for 10 min at 4 °C. Total RNA was extracted using the High Pure Viral Nucleic Acid kit and cDNA was synthesized with the PrimeScript™ RT Master Mix kit. The specific steps of RT-PCR amplification were the same as the previous section in the present study. The related primers for mouse were designed by Sangon Biotech, Co., Ltd. (Shanghai, China) and are described in Table S2 .

[7] = system: IL-1β, IL-6 and IL-10 in serum; assay type: in vivo, ICR mice; settings: 3rd and 7th day after infection; for IL-10 in serum: P < 0.01; for IL-1β in serum: P < 0.01 or P < 0.05; for IL-6 in serum: P > 0.05
Procedure: as §1
In days 3 and 7 post-infection, blood samples of six mice from each group were collected from retroorbital sinus under mild ethyl ether anesthesia before they were sacrificed, then under 4 °C they were centrifuged at 3000 rpm for 20 min to obtain serum. The levels of IL-1β, IL-6 and IL-10 in murine serum were determined by ELISA kits.

[8] = system: TNF-α, IFN-γ, TLR3, TLR4, TLR7, MyD88, NF-κB p65 and RIG-1 mRNA; set-up: species or system ICR mice; settings: mouse, in vivo
[9] = system: TLR4, TLR7, MyD88 and NF-κB p65 protein expression; set-up: species or system ICR mice; settings: mouse, in vivo
influenza A virus [10] = settings: dog
influenza A virus [11] = experiment: microbe, parasite or virus in culture; settings: MDCK, 48 h, read-out: Cell survival rate
[12] = drug delivery way: Blocking viruses invading host cells
[13] = drug delivery way: Directly inhibiting virus
[14] = drug delivery way: Inhibiting the biosynthesis of virus
[15] = drug delivery way: Intervening the adsorption of virus
[16] = 3rd day after infection, three doses, P < 0.01 or P < 0.05
[17] = 7th day after infection, 40 and 20 mg/kg groups, P < 0.05

CN[C@@H](C)[C@H](O)c1ccccc1 [LEP, L-ephedrine]
EC50 (influenza A virus [1]; [12]): 11 µg/mL (≈ 66.3 µM)
EC50 (influenza A virus [1]; [13]): 6.28 µg/mL (≈ 38 µM)
EC50 (influenza A virus [1]; [14]): 5.66 µg/mL (≈ 34.3 µM)
EC50 (influenza A virus [1]; [15]): 7.15 µg/mL (≈ 43.3 µM)
antiviral effective rate (ER) (influenza A virus [1]): > 36.00%
CPE of infected MDCK cells (influenza A virus [2]): significantly reduce the CPE
viral load in MDCK cells vs control infected group (influenza A virus [2]): significantly decreased
IL-6 level in cell supernatant vs control infected group [3]: significantly higher than that in the control infected group
level of IFN-β in cell supernatant vs control infected group [3]: significantly increase; also recorded: increased
secretion of TNF-α vs control infected group [3]: significantly inhibited the secretion of TNF-α
mRNA expression levels of TLR4 and TRAF3 [4]: inhibited
mRNA expression levels of TLR7, NF-κB p65, TLR3 and IRF3 [4]: significantly reduced
mRNA expression of IFN-β [4]: significantly increased
mRNA expression of MyD88 and TRAF6 [4]: marked decreased
mRNA expression of TLR4 and MyD88 [4]: significantly inhibited
mRNA expression of TRAF6 and TRAF3 [4]: decreased
histopathological responses of lung tissue [5]: attenuated the inflammation
viral load in lung tissue vs control infected group [6, 16]: significantly decreased
viral load in lung tissue vs control infected group [6, 17]: significantly reduced
IL-10 in serum [7]: accelerated the production of IL-10
IL-1β in serum [7]: dramatically inhibited the production of IL-1β
IL-6 in serum [7]: slightly increased
mRNA expression levels of TLR3, TLR4, TLR7, MyD88, NF-κB p65 and RIG-1 in lung tissue [8]: obviously inhibited
mRNA expression of IFN-γ in lung tissue [8]: significantly promoted
mRNA expression of TNF-α in lung tissue [8]: markedly inhibited
inhibition effect on protein expression of TLR4 and TLR7 in lung tissue [9]: not obvious
protein expression levels of MyD88 and NF-κB p65 in lung tissue [9]: significantly down-regulated
protein expression levels of TLR4 and TLR7 in lung tissue [9]: Decreased
protein expression of TLR4, TLR7 and NF-κB p65 in comparison to oseltamivir [9]: dramatically inhibit
cell viability rate (influenza A virus [10]): ≥ 70%
viability at 0.49 µg/mL (influenza A virus [11]): 42.6%
viability at 0.98 µg/mL (influenza A virus [11]): 51.6%
viability at 1.95 µg/mL (influenza A virus [11]): 57.8%
viability at 3.91 µg/mL (influenza A virus [11]): 61.5%
viability at 7.81 µg/mL (influenza A virus [11]): 67.2%

CN[C@@H](C)[C@@H](O)c1ccccc1 [DPEP, D-pseudoephedrine]
EC50 (influenza A virus [1]; [12]): 8.17 µg/mL (≈ 49.4 µM)
EC50 (influenza A virus [1]; [13]): 6.04 µg/mL (≈ 36.6 µM)
EC50 (influenza A virus [1]; [14]): 4.67 µg/mL (≈ 28.3 µM)
EC50 (influenza A virus [1]; [15]): 7.57 µg/mL (≈ 45.8 µM)
antiviral effective rate (ER) (influenza A virus [1]): more than 38.00%
CPE of infected MDCK cells (influenza A virus [2]): significantly reduce the CPE
viral load in MDCK cells vs control infected group (influenza A virus [2]): significantly decreased
IL-6 level in cell supernatant vs control infected group [3]: significantly higher than that in the control infected group
level of IFN-β in cell supernatant vs control infected group [3]: significantly increase; also recorded: increased
secretion of TNF-α vs control infected group [3]: significantly inhibited the secretion of TNF-α
IFN-β mRNA expression compared with the oseltamivir group [4]: significantly increased
mRNA expression levels of MyD88, TRAF6 and TRAF3 [4]: obvious decreased
mRNA expression levels of NF-κB p65, TRAF3 and IRF3 compared with the oseltamivir group [4]: significantly reduced
mRNA expression levels of TLR7, NF-κB p65, TLR3 and IRF3 [4]: significantly reduced
mRNA expression levels of TRAF6 and TLR4 [4]: reduced
mRNA expression of IFN-β [4]: significantly increased
mRNA expression of MyD88 and TRAF3 [4]: significant decreased
mRNA expression of TLR4 [4]: significant decreased
histopathological responses of lung tissue [5]: attenuated the inflammation
viral load in lung tissue vs control infected group [6, 16]: significantly decreased
viral load in lung tissue vs control infected group [6, 17]: significantly reduced
IL-10 in serum [7]: accelerated the production of IL-10
IL-1β in serum [7]: dramatically inhibited the production of IL-1β
IL-6 in serum [7]: slightly increased
mRNA expression levels of TLR3, TLR4, TLR7, MyD88, NF-κB p65 and RIG-1 in lung tissue [8]: obviously inhibited
mRNA expression of IFN-γ in lung tissue [8]: significantly promoted
mRNA expression of TNF-α in lung tissue [8]: markedly inhibited
inhibition effect on protein expression of TLR4 and TLR7 in lung tissue [9]: not obvious
protein expression levels of MyD88 and NF-κB p65 in lung tissue [9]: significantly down-regulated
protein expression levels of TLR4 and TLR7 in lung tissue [9]: Decreased
protein expression of TLR4, TLR7 and NF-κB p65 in comparison to oseltamivir [9]: dramatically inhibit
cell viability rate (influenza A virus [10]): ≥ 70%
viability at 0.49 µg/mL (influenza A virus [11]): 45.3%
viability at 0.98 µg/mL (influenza A virus [11]): 54.7%
viability at 1.95 µg/mL (influenza A virus [11]): 61.2%
viability at 3.91 µg/mL (influenza A virus [11]): 63.9%
viability at 7.81 µg/mL (influenza A virus [11]): 72.5%
